Tested on: fasted normal Sprague-Dawley rats
Test: In vivo hyperglycemic clamp assay (glucose up-take assay)
Set-up: species or system rat
Conditions: 0.3 nmol/kg iv bolus at 60 min
Excerpt: In vivo Hyperglycemic Clamp Assay (Glucose Up-take Assay) Male Sprague-Dawley rats (Charles Rivers) weighing about 350 grams were allowed to acclimate to their surroundings for a week after which they were cannulated under isoflurane inhalation anesthetic. Two catheters were implanted into the jugular vein for infusions of glucose and GLP-1 fragment. Another catheter was implanted into the carotid artery for sampling blood. The catheters were exteriorized through the skin at the vertex of the head, filled with a glycerol/heparin solution (30 ml glycerol/10 ml heparin from a 1000 u/ml stock solution), and closed off with a one centimeter stainless steel plug. The rats were housed individually in wire mesh cages and were fed ad libitum on a standard rat chow diet. Each animal was given at least one week to recover from surgery before testing any GLP-1 fragments for biological activity. The rats were fasted overnight; on the morning of the experiment, sampling tubes were connected to the indwelling catheters, and the tubes were enclosed in a light weight stainless steel spring for protection. The rats were acclimated to their cages for 15 minutes. All experiments were carried out in conscious, free moving rats. A basal blood sample was taken for measurement of insulin and glucose levels at time zero on the timer. The rats were then given a bolus of 20% dextrose to raise plasma glucose to either 150 mg/dl (8.3 mM) or 200 mg/dl (11.2 mM). Plasma glucose levels were maintained at the chosen level by measuring plasma glucose levels approximately every 5 minutes and adjusting the calibrated variable infusion pump as needed to maintain the established blood glucose levels. Blood samples were collected at 45 and 60 minutes for the control period measurements. At 60 minutes into the clamp, 0.3 nmol/kg of the experimental GLP-1 fragment was injected via the jugular vein catheter and flushed with saline. […] The blood samples were centrifuged in a micro centrifuge to separate the plasma component. Plasma glucose was measured on a Beckman Glucose analyzer II using the glucose oxidase method. Plasma insulin was determined by standard radio immunoassay as per the manufacturer's directions (Diagnostic Products Corp.). The activity of the GLP-1 fragment was determined by the percentage change in glucose infusion rate and change in insulin secreted. These two parameters were compared to control rats that received only diluent. Note: This assay is based on reports that GLP-1 insulinotropic action is glucose dependent. The assay protocol eliminates variability due to falling glucose levels in other protocols using the "bolus" method. The hyperglycemic clamp involved administration of variable amounts of glucose (20% dextrose) to maintain glucose at a constant level of 8.3 or 11.2 mM in fasted normal Sprague-Dawley rats. The hyperglycemic clamp is maintained for 1 hour after which the GLP-1 fragment is injected as a bolus through the jugular vein. […] The glucose infusion rate (GIR) in the last 15 minutes of the control period and after the injection of the peptide is calculated. The activity of the peptide is determined by the increase in glucose infusion rate and change in insulin secreted after the injection of the peptide.

[1] = 200 mg/dl plasma glucose clamp, time 60 min
[2] = 200 mg/dl plasma glucose clamp, time 62 min
[3] = 200 mg/dl plasma glucose clamp, time 64 min
[4] = 200 mg/dl plasma glucose clamp, time 66 min
[5] = 200 mg/dl plasma glucose clamp, time 68 min
[6] = 200 mg/dl plasma glucose clamp, time 70 min
[7] = 200 mg/dl plasma glucose clamp, time 75 min
[8] = 200 mg/dl plasma glucose clamp, time 80 min
[9] = 200 mg/dl plasma glucose clamp, time 85 min
[10] = 200 mg/dl plasma glucose clamp, time 90 min
[11] = 200 mg/dl plasma glucose clamp, time 100 min
[12] = 200 mg/dl plasma glucose clamp, time 110 min
[13] = 200 mg/dl plasma glucose clamp, time 120 min
[14] = 150 mg/dl plasma glucose clamp, time 60 min
[15] = 150 mg/dl plasma glucose clamp, time 62 min
[16] = 150 mg/dl plasma glucose clamp, time 64 min
[17] = 150 mg/dl plasma glucose clamp, time 66 min
[18] = 150 mg/dl plasma glucose clamp, time 68 min
[19] = 150 mg/dl plasma glucose clamp, time 70 min
[20] = 150 mg/dl plasma glucose clamp, time 75 min
[21] = 150 mg/dl plasma glucose clamp, time 80 min
[22] = 150 mg/dl plasma glucose clamp, time 85 min
[23] = 150 mg/dl plasma glucose clamp, time 90 min
[24] = 150 mg/dl plasma glucose clamp, time 100 min
[25] = 150 mg/dl plasma glucose clamp, time 110 min
[26] = 150 mg/dl plasma glucose clamp, time 120 min
[27] = 150 mg/dl plasma glucose clamp, time 130 min
[28] = 150 mg/dl plasma glucose clamp, time 140 min
[29] = 150 mg/dl plasma glucose clamp, time 150 min
[30] = 200 mg/dl plasma glucose clamp, time 130 min
[31] = 200 mg/dl plasma glucose clamp, time 140 min
[32] = 200 mg/dl plasma glucose clamp, time 150 min

GLP-1(R26)(9-36)NH2 [GLP-1(R26) (9-36)NH2]
% Change in GIR [1]: 19.020% | Plasma Insulin Change [1]: 1.692 ng/mL | % Change in GIR [2]: 2.128% | Plasma Insulin Change [2]: 0.693 ng/mL | % Change in GIR [3]: 3.752% | Plasma Insulin Change [3]: 0.025 ng/mL | % Change in GIR [4]: 11.602% | Plasma Insulin Change [4]: 0.204 ng/mL | % Change in GIR [5]: 29.976% | Plasma Insulin Change [5]: 0.063 ng/mL | % Change in GIR [6]: 37.819% | Plasma Insulin Change [6]: 0.185 ng/mL | % Change in GIR [7]: 50.568% | Plasma Insulin Change [7]: -0.125 ng/mL | % Change in GIR [8]: 42.526% | Plasma Insulin Change [8]: 0.134 ng/mL | % Change in GIR [9]: 16.548% | Plasma Insulin Change [9]: -0.550 ng/mL | % Change in GIR [10]: -6.165% | Plasma Insulin Change [10]: -0.336 ng/mL | % Change in GIR [11]: -18.164% | Plasma Insulin Change [11]: 0.027 ng/mL | % Change in GIR [12]: -35.351% | Plasma Insulin Change [12]: -0.100 ng/mL | % Change in GIR [13]: -48.404% | Plasma Insulin Change [13]: 0.399 ng/mL

GLP-1(7-37)OH
% Change in GIR [14]: 11.15% | Plasma Insulin Change [14]: 1.140 ng/mL | % Change in GIR [15]: -0.20% | Plasma Insulin Change [15]: 7.233 ng/mL | % Change in GIR [16]: 11.15% | Plasma Insulin Change [16]: 1.464 ng/mL | % Change in GIR [17]: 1.66% | Plasma Insulin Change [17]: 0.324 ng/mL | % Change in GIR [18]: 5.64% | Plasma Insulin Change [18]: -0.016 ng/mL | % Change in GIR [19]: 19.95% | Plasma Insulin Change [19]: -0.375 ng/mL | % Change in GIR [20]: 71.90% | Plasma Insulin Change [20]: -0.465 ng/mL | % Change in GIR [21]: 92.63% | Plasma Insulin Change [21]: -0.357 ng/mL | % Change in GIR [22]: 61.76% | Plasma Insulin Change [22]: -0.020 ng/mL | % Change in GIR [23]: 14.74% | Plasma Insulin Change [23]: -0.181 ng/mL | % Change in GIR [24]: -26.22% | Plasma Insulin Change [24]: -0.358 ng/mL | % Change in GIR [25]: -38.57% | Plasma Insulin Change [25]: -0.174 ng/mL | % Change in GIR [26]: -48.67% | Plasma Insulin Change [26]: -0.326 ng/mL | % Change in GIR [27]: -54.82% | Plasma Insulin Change [27]: -0.578 ng/mL | % Change in GIR [28]: -58.43% | Plasma Insulin Change [28]: -0.367 ng/mL | % Change in GIR [29]: -63.58% | Plasma Insulin Change [29]: -0.465 ng/mL | % Change in GIR [1]: 20.449% | Plasma Insulin Change [1]: 1.887 ng/mL | % Change in GIR [2]: 25.050% | Plasma Insulin Change [2]: 11.101 ng/mL | % Change in GIR [3]: 23.583% | Plasma Insulin Change [3]: 4.219 ng/mL | % Change in GIR [4]: 15.374% | Plasma Insulin Change [4]: 3.246 ng/mL | % Change in GIR [5]: 19.465% | Plasma Insulin Change [5]: 1.359 ng/mL | % Change in GIR [6]: 50.305% | Plasma Insulin Change [6]: -0.208 ng/mL | % Change in GIR [7]: 71.461% | Plasma Insulin Change [7]: -0.692 ng/mL | % Change in GIR [8]: 88.390% | Plasma Insulin Change [8]: -0.456 ng/mL | % Change in GIR [9]: 86.482% | Plasma Insulin Change [9]: -0.177 ng/mL | % Change in GIR [10]: 55.677% | Plasma Insulin Change [10]: -0.250 ng/mL | % Change in GIR [11]: 11.304% | Plasma Insulin Change [11]: -0.301 ng/mL | % Change in GIR [12]: -12.411% | Plasma Insulin Change [12]: -0.222 ng/mL | % Change in GIR [13]: -7.123% | Plasma Insulin Change [13]: -0.405 ng/mL | % Change in GIR [30]: -17.745% | Plasma Insulin Change [30]: -0.590 ng/mL | % Change in GIR [31]: -15.311% | Plasma Insulin Change [31]: -0.289 ng/mL | % Change in GIR [32]: -21.279% | Plasma Insulin Change [32]: -0.280 ng/mL
